Measured values as given in ChEMBL document CHEMBL4371083, “Synthesis, biological evaluation and 3D-QSAR studies of 1,2,4-triazole-5-substituted carboxylic acid bioisosteres as uric acid transporter 1 (URAT1) inhibitors for the treatment of hyperuricemia associated with gout” (Bioorg Med Chem Lett, 2019).

These molecules were tested against T1, Solute carrier family 22 member 12 (Homo sapiens, UniProt Q96S37) (assay: Inhibition of human URAT1 expressed in HEK293 cells assessed as reduction in [8-14C]uric acid uptake).
T1 sequence (Q96S37 whole entry): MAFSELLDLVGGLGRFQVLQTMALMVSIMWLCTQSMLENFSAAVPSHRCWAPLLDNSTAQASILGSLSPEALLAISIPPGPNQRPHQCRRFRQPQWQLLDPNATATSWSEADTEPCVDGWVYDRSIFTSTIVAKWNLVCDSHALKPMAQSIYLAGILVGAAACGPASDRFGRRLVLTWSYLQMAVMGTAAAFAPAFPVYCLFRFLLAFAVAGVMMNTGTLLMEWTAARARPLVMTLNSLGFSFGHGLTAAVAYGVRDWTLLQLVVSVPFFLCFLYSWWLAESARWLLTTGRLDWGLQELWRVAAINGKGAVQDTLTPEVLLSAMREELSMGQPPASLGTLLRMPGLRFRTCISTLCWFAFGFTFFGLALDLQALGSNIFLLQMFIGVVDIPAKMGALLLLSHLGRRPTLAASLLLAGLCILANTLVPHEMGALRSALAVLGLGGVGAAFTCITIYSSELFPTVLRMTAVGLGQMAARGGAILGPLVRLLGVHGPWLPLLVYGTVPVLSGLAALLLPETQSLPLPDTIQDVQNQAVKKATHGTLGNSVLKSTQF
Assay type: cell-based
With `O=S(=O)(CSc1nnc(Br)n1Cc1ccc(Br)c2ccccc12)Nc1ccc(C(F)(F)F)nc1` the IC50 was 10.2 µM. `O=S(=O)(CSc1nnc(Br)n1Cc1ccc(Br)c2ccccc12)Nc1ccc(Cl)nc1Cl` gave an IC50 of 1.66 µM. In the case of `O=S(=O)(CSc1nnc(Br)n1Cc1ccc(Br)c2ccccc12)Nc1ccc(F)nc1`, the IC50 is reported as 1.55 µM. `O=S(=O)(CSc1nnc(Br)n1Cc1ccc(Br)c2ccccc12)Nc1cccnc1Br` gave an IC50 of 0.28 µM. `NS(=O)(=O)CSc1nnc(Br)n1Cc1ccc(Br)c2ccccc12` was tested, and the IC50 was 365 µM. `O=S(=O)(CSc1nnc(Br)n1Cc1ccc(Br)c2ccccc12)Nc1cccnc1Cl` gave an IC50 of 5.1 µM. For `O=C(CSc1nnc(Br)n1Cc1ccc(Br)c2ccccc12)NO`, the IC50 was 0.64 µM. `O=S(=O)(CSc1nnc(Br)n1Cc1ccc(Br)c2ccccc12)Nc1ccc(Br)nc1Br` gave an IC50 of 5.41 µM. Molecule `O=S(=O)(CSc1nnc(Br)n1Cc1ccc(Br)c2ccccc12)Nc1cncc(C(F)(F)F)c1` has an IC50 of 6.38 µM. `O=S(=O)(CSc1nnc(Br)n1Cc1ccc(Br)c2ccccc12)Nc1ccccc1` gave an IC50 of 15.8 µM. `O=S(=O)(CSc1nnc(Br)n1Cc1ccc(Br)c2ccccc12)Nc1cccnc1` was tested, and the IC50 was 0.032 µM. Molecule `O=S(=O)(CSc1nnc(Br)n1Cc1ccc(Br)c2ccccc12)Nc1cnccc1I` has an IC50 of 10.6 µM. Molecule `O=S(=O)(CSc1nnc(Br)n1Cc1ccc(Br)c2ccccc12)Nc1ccc(Br)nc1` has an IC50 of 2.2 µM. With `O=S(=O)(CSc1nnc(Br)n1Cc1ccc(Br)c2ccccc12)Nc1cc(Cl)cnc1Cl` the IC50 was 2.79 µM. With `Brc1ccc(Cn2c(Br)nnc2SCc2nnn[nH]2)c2ccccc12` the IC50 was 3.24 µM. `O=S(=O)(O)CSc1nnc(Br)n1Cc1ccc(Br)c2ccccc12` gave an IC50 of 14.4 µM. `COc1ncccc1NS(=O)(=O)CSc1nnc(Br)n1Cc1ccc(Br)c2ccccc12` gave an IC50 of 4.05 µM. Work on `O=S(=O)(CSc1nnc(Br)n1Cc1ccc(Br)c2ccccc12)Nc1ccc(Cl)nc1` yielded an IC50 of 1.94 µM. Work on `Oc1c(Br)cc(CSc2nnc(Br)n2Cc2ccc(Br)c3ccccc23)cc1Br` yielded an IC50 of 119 µM.
